{"source": "patent US8399438B2", "about": "“2α-methyl-19-nor-1α-hydroxy-homopregnacalciferol and its uses” (Wisconsin Alumni Research Foundation, priority 2004, dated 2013)", "key": {"[1]": {"tested_on": "24-hydroxylase (24Ohase) gene promoter in ROS 17/2.8 (bone) cells", "assay": "In vitro transcription assay (24-hydroxylase promoter luciferase reporter)", "type": "cell-based", "conditions": "ROS 17/2.8 cells, 16 h, FIG. 3, read-out: EC50, transcriptional activity in bone cells", "protocol": "Transcription activity was measured in ROS 17/2.8 (bone) cells that were stably transfected with a 24-hydroxylase (24Ohase) gene promoter upstream of a luciferase reporter gene (Arbour et al., 1998). Cells were given a range of doses. Sixteen hours after dosing the cells were harvested and luciferase activities were measured using a luminometer.\nRLU=relative luciferase units."}, "[2]": {"tested_on": "Sprague-Dawley rats", "assay": "PTH suppression (bioactive serum PTH, ELISA)", "type": "in vivo, rat", "protocol": "Adult, female Sprague-Dawley rats were obtained from Harlan (Madison, Wis.). Upon receipt, the animals were identified by individual tail marks. Animals were housed in suspended, stainless steel, wire-bottom cages. Each cage contained one animal. The animal rooms were maintained at a temperature of 68 to 72° F. and a relative humidity of 25 to 75%. The holding rooms were set to provide 12 hours of light per day. Water and a purified rodent diet (Suda et al., Purified Rodent Diet-Diet 11) containing […] 0.3% phosphorus and fat soluble vitamins A, D, E and K were provided ad libitum. Treatment Groups Animals were randomly assigned to treatment groups (5 animals/group). All doses were administered intraperitoneally in 100 microliters of propylene glycol. Four to seven consecutive doses were given approximately 24 hours apart. Dosing was initiated after the animals had been allowed to acclimate for at least one week. Dose Preparation Control Material Negative Control Material […] The solution was mixed and then stored at 2 to 8° C. The analogs were prepared by first determining the concentration of an ethanol stock solution using UV spectrophotometry (extinction coefficient=42,000; λmax=252 nm). The analog solutions were then volumetrically added to propylene glycol so that there was less than 5% ethanol in the final solution. The solution was mixed and stored at 2 to 8° C. […] Serum PTH Levels. Twenty-four hours after the final dose, blood was collected from the tail artery and the concentration of bioactive serum PTH was measured using the rat BioActive Intact PTH ELISA Kit from Immutopics, Inc. (San Clemente, Calif.). Serum Calcium Analysis Twenty-four hours after the final dose, approximately 1 ml of blood was collected from the tail artery of each experimental animal. The blood was allowed to coagulate at room temperature and then centrifuged at 3000×g for 15 minutes. The serum was transferred to a polypropylene tube and stored frozen at −20° C. The level of calcium was determined by diluting the serum into 0.1% lanthum chloride and measuring the absorbance on an atomic absorption spectrophotometer (Perkin Elmer Model 3110, Shelton, Conn.)."}, "[3]": {"tested_on": "Sprague-Dawley rats", "assay": "Intestinal calcium transport (everted gut sac method) in vitamin D-deficient rats", "type": "in vivo, rat", "conditions": "for intestinal calcium transport: everted gut sac", "protocol": "(§1) Male, weanling Sprague-Dawley rats were placed on Diet 11 (0.47% Ca) diet+AEK for one week followed by Diet 11 (0.02% Ca)+AEK for 3 weeks. The rats were then switched to a diet containing 0.47% Ca for one week followed by two weeks on a diet containing 0.02% Ca. Dose administration began during the last week on 0.02% calcium diet. Four consecutive ip doses were given approximately 24 hours apart. Twenty-four hours after the last dose, blood was collected from the severed neck and the concentration of serum calcium determined as a measure of bone calcium mobilization. The first 10 cm of the intestine was also collected for intestinal calcium transport analysis using the everted gut sac method."}, "[4]": {"tested_on": "Sprague-Dawley rats", "assay": "Bone calcium mobilization (serum calcium) in vitamin D-deficient rats", "type": "in vivo, rat", "conditions": "for bone calcium mobilization (serum calcium): rats on 0.02% Ca diet", "protocol": "as §1"}, "[5]": {"tested_on": "Human promyelocytic leukemia (HL60) cells", "assay": "HL-60 differentiation (nitro blue tetrazolium reduction)", "type": "cell-based", "conditions": "FIG. 2; for EC50: HL60 cells, 4 days, NBT reduction", "protocol": "The study drugs were dissolved in ethanol and the concentrations determined using UV spectrophotometry. Serial dilutions were prepared so that a range of drug concentrations could be tested without changing the final concentration of ethanol (≦0.2%) present in the cell cultures.\nHuman promyelocytic leukemia (HL60) cells were grown in RPMI-1640 medium containing 10% fetal bovine serum. The cells were incubated at 37° C. in the presence of 5% CO2.\nHL60 cells were plated at 1.2×10^5 cells/ml. Eighteen hours after plating, cells in duplicate were treated with drug. Four days later, the cells were harvested and a nitro blue tetrazolium reduction assay was performed (Collins et al., 1979; J. Exp. Med. 149:969-974). The percentage of differentiated cells was determined by counting a total of 200 cells and recording the number that contained intracellular black-blue formazan deposits. Verification of differentiation to monocytic cells was determined by measuring phagocytic activity (data not shown)."}, "[6]": {"target": "T1, full-length recombinant rat vitamin D receptor (Rattus norvegicus, UniProt P13053)", "T1 construct": "Full-length recombinant rat receptor was expressed in E. coli; histidine tag (C); made in house; host or cells: E. coli BL21 (DE3) Codon Plus RIL", "T1 sequence (P13053 1-423)": "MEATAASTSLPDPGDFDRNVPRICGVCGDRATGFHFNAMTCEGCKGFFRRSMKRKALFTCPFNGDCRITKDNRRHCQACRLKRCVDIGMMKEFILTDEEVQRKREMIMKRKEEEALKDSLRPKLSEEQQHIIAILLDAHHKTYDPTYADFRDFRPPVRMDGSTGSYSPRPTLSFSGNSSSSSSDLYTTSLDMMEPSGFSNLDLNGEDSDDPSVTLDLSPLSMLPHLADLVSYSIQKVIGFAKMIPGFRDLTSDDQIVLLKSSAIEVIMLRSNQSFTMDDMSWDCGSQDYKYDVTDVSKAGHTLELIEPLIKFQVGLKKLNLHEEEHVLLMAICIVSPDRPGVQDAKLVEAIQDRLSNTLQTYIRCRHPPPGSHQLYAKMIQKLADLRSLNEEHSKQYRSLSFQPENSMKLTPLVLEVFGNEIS", "assay": "Vitamin D receptor binding, competition with [3H]-1,25(OH)2D3", "conditions": "FIG. 1", "protocol": "Full-length recombinant rat receptor was expressed in E. coli BL21 (DE3) Codon Plus RIL cells and purified to homogeneity using two different column chromatography systems. The first system was a nickel affinity resin that utilizes the C-terminal histidine tag on this protein. The protein that was eluted from this resin was further purified using ion exchange chromatography (S-Sepharose Fast Flow). Aliquots of the purified protein were quick frozen in liquid nitrogen and stored at −80° C. until use. For use in binding assays, the protein was diluted in TEDK50 (50 mM Tris, 1.5 mM EDTA, pH7.4, 5 mM DTT, 150 mM KCl) with 0.1% Chaps detergent. The receptor protein and ligand concentration were optimized such that no more than 20% of the added radiolabeled ligand was bound to the receptor.\nRadiolabeled and unlabeled ligands were added to 100 mcl of the diluted protein at a final ethanol concentration of ≦10%, mixed and incubated overnight on ice to reach binding equilibrium. The following day, 100 mcl of hydroxylapatite slurry (50%) was added to each tube and mixed at 10-minute intervals for 30 minutes. The hydroxylapaptite was collected by centrifugation and then washed three times with Tris-EDTA buffer (50 mM Tris, 1.5 mM EDTA, pH 7.4) containing 0.5% Titron X-100. […] Total binding was determined from the tubes containing only radiolabeled ligand."}}}
{"smiles": "C=C1/C(=C\\C=C2/CCC[C@]3(C)[C@@H]([C@H](C)CCCC(C)(C)O)CC[C@@H]23)C[C@@H](O)C[C@@H]1O", "note": "[1,25(OH)2D3, 1α,25-dihydroxyvitamin D3, reference compound]", "values": [{"measurement": "EC50", "setting": "[1]", "result": 0.29, "unit": "nM"}, {"measurement": "PTH suppression", "setting": "[2]; 100 pmol/day ip, 4 consecutive days", "result": 100, "unit": "%"}, {"measurement": "intestinal calcium transport", "setting": "[3]; 260 pmol/day ip", "result": "promotes a significant increase"}, {"measurement": "bone calcium mobilization (serum calcium)", "setting": "[4]; all dosages tested", "result": "increased serum calcium levels"}, {"measurement": "EC50", "setting": "[5]", "result": 3.6, "unit": "nM"}]}
{"smiles": "CC(C)C1CCC2C(=CC=C3CC(O)C(C)C(O)C3)CCCC21C", "note": "(stereo not drawn) [2α-methylP, 2α-methyl-19-nor-1α-hydroxy-homopregnacalciferol]", "values": [{"measurement": "EC50", "setting": "[1]", "result": 3.3, "unit": "nM"}, {"measurement": "VDR binding compared to 1,25-(OH)2D3 (in words)", "setting": "[6]", "result": "bound equally well"}, {"measurement": "Ki", "setting": "[6]; full-length recombinant rat VDR", "result": 0.94, "unit": "nM"}, {"measurement": "PTH suppression", "setting": "[2]; 500 pmol/day ip, 7 consecutive days", "result": "about 20%"}, {"measurement": "PTH suppression", "setting": "[2]; 1500 pmol/day ip, 7 consecutive days", "result": "about 20%"}, {"measurement": "PTH suppression", "setting": "[2]; 4500 pmol/day ip, 7 consecutive days", "result": "about 60%"}, {"measurement": "PTH suppression compared to 1,25(OH)2D3 (in words)", "setting": "[2]; FIG. 6", "result": "not as potently as 1,25(OH)2D3"}, {"measurement": "intestinal calcium transport", "setting": "[3]; 87 pmol/day ip", "result": "does not promote intestinal calcium transport"}, {"measurement": "intestinal calcium transport", "setting": "[3]; 260 pmol/day ip", "result": "does not promote intestinal calcium transport"}, {"measurement": "intestinal calcium transport", "setting": "[3]; 780 pmol/day ip", "result": "does not promote intestinal calcium transport"}, {"measurement": "intestinal calcium transport", "setting": "[3]; 2340 pmol/day ip", "result": "does not promote intestinal calcium transport"}, {"measurement": "intestinal calcium transport activity compared to 1,25(OH)2D3 (in words)", "setting": "[3]; overall, FIG. 5", "result": "very little activity"}, {"measurement": "bone calcium mobilization (serum calcium)", "setting": "[4]; 87 pmol/day ip, 4 consecutive days", "result": "did not result in mobilization of bone calcium"}, {"measurement": "bone calcium mobilization (serum calcium)", "setting": "[4]; 260 pmol/day ip, 4 consecutive days", "result": "without any substantial effect"}, {"measurement": "bone calcium mobilization (serum calcium)", "setting": "[4]; 780 pmol/day ip, 4 consecutive days", "result": "without any substantial effect"}, {"measurement": "bone calcium mobilization (serum calcium)", "setting": "[4]; 2340 pmol/day ip, 4 consecutive days", "result": "without any substantial effect"}, {"measurement": "bone calcium mobilization activity compared to 1,25(OH)2D3 (in words)", "setting": "[4]; overall, FIG. 4", "result": "very little bone calcium mobilization activity"}, {"measurement": "HL-60 cell differentiation potency compared to 1,25(OH)2D3 (in words)", "setting": "[5]", "result": "almost as potent as 1,25(OH)2D3"}, {"measurement": "EC50", "setting": "[5]; Homo sapiens, HL-60, 96 h", "result": 38, "unit": "nM"}]}
